Series [1] is described as follows: Assay (IV) determination of solubility. The class given is physicochemical. In outline:
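Solubility was profiled across pH 3.0–8.0 after 18 hours at room temperature: a ~500 nmol/ml aqueous polypeptide solution was diluted 1:1 into 100 mM glycylglycine or bistrispropane buffers. After centrifugation, HPLC gave the dissolved concentration.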

Series [2] has as its target T1, human calcitonin receptor (Homo sapiens, UniProt P30988).
T1 construct: expressed in transfected cells; host or cells: BHK570
T1 sequence (P30988 25-474): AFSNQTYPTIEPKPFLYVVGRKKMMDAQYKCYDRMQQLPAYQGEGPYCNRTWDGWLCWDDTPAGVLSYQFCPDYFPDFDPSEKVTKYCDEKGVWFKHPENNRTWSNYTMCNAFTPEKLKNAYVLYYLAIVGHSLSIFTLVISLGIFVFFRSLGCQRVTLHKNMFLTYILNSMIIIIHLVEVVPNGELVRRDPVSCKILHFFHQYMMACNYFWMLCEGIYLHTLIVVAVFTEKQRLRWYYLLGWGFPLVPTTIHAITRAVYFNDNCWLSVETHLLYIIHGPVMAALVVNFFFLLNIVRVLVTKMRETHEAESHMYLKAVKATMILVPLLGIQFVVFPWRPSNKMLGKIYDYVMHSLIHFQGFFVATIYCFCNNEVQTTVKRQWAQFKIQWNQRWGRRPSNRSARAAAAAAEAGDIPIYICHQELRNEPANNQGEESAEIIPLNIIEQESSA
The series can be described thus: Assay (II)a functional CRE-luciferase assay, human calcitonin receptor. The class given is cell-based.

Series [3] is described as follows: Assay (III) ThT fibrillation assay for physical stability. The format is physicochemical. The conditions noted are these: ThT fibrillation assay. The essentials:
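Freshly prepared formulations, pH-adjusted, with 1 μM ThT; four or eight replicates incubated at 37 °C under 960 rpm orbital shaking. Fluorescence (ex 444/em 485 nm) read every 20 min; […]. Peptide concentration measured by RP-HPLC before and after the run.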

Series [4] deals with T2, human amylin receptor (amylin 3(a) receptor: human calcitonin receptor + RAMP-3) (Homo sapiens, UniProt O60896+P30988).
T2 construct: expressed in transfected cells; host or cells: BHK570
T2 sequence (P30988 25-474): T1 sequence (P30988 25-474)
T2 sequence (O60896 24-148 partner): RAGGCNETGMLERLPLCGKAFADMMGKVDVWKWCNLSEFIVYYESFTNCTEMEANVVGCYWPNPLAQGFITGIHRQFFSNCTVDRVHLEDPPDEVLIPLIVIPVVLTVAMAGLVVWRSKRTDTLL
Nature of the series: Assay (II)a functional CRE-luciferase assay, human amylin receptor. The class given is cell-based.

[5] abbreviates: bistrispropane buffer, pH 6, pH 6.0, read-out: Solubility pH 6.0.
[6] abbreviates: bistrispropane buffer, pH 6.5, pH 6.5, read-out: Solubility pH 6.5.
[7] abbreviates: bistrispropane buffer, pH 7, pH 7.0, read-out: Solubility pH 7.0.
Where [8] appears, read: bistrispropane buffer, pH 7.5, pH 7.5, read-out: Solubility pH 7.5.
Setting [9] is: bistrispropane buffer, pH 8, pH 8.0, read-out: Solubility pH 8.0.
Setting [10] is: glycylglycine buffer, pH 3, pH 3.0, read-out: Solubility pH 3.0.
Where [11] appears, read: glycylglycine buffer, pH 4, pH 4.0, read-out: Solubility pH 4.0.
Where [12] appears, read: glycylglycine buffer, pH 5, pH 5.0, read-out: Solubility pH 5.0.
Setting [13] is: Table 11, read-out: CTa receptor human EC50.
[14] abbreviates: pH 8.0, read-out: Solubility pH 8.0.

Experimental findings from patent publication US8722849B2, “Polypeptides” (Novo Nordisk A/S, priority 2011, dated 2014) are described below.

Each structure is given as a SMILES string. In brackets after ≈: the same amount, converted by molar mass. Read-outs that look alike come from different tables or passages of the source. Starred links: 1 amine or outer side, 2 acyl side, 3 side chain; linkers in the order of their positions; H or OH if unused. Positions of bridges follow the written chain, without caps; N, C: chain ends. Residues, ends and D or L forms follow the SMILES beside them. *: point of attachment. C20 diacid = O=C(O)CCCCCCCCCCCCCCCCCCC(=O)*; γGlu = O=C(O)[C@H](CCC(=O)[*:2])N[*:1]

As usually defined, the solubility is how much of the substance goes into solution per volume. What is called EC50 is the concentration giving half of the maximal effect. Consider `CC[C@H](C)[C@H](NC(=O)[C@@H]1CCCN1C(=O)CNC(=O)[C@H](Cc1ccccc1)NC(=O)[C@H](CC(N)=O)NC(=O)[C@H](CC(N)=O)NC(=O)[C@H](CO)NC(=O)[C@H](CO)NC(=O)[C@H](Cc1c[nH]cn1)NC(=O)[C@H](Cc1c[nH]cn1)NC(=O)[C@H](CC(C)C)NC(=O)[C@H](Cc1ccccc1)NC(=O)[C@H](CCC(=O)O)NC(=O)[C@H](C)NC(=O)[C@H](CC(C)C)NC(=O)[C@H](CCCNC(=N)N)NC(=O)[C@H](CCC(N)=O)NC(=O)[C@@H](NC(=O)[C@H](C)NC(=O)[C@@H]1CSSC[C@H](NC(=O)[C@H](CCCNC(=N)N)NC(=O)CC[C@H](NC(=O)CCCCCCCCCCCCCCCCCCC(=O)O)C(=O)O)C(=O)N[C@@H](CC(N)=O)C(=O)N[C@@H]([C@@H](C)O)C(=O)N[C@@H](C)C(=O)N[C@@H]([C@@H](C)O)C(=O)N1)[C@@H](C)O)C(=O)N[C@@H](CC(C)C)C(=O)N1CCC[C@H]1C(=O)N1CCC[C@H]1C(=O)N[C@H](C(=O)N[C@@H](CC(N)=O)C(=O)N[C@H](C(=O)NCC(=O)N[C@@H](CO)C(=O)N[C@@H](Cc1c[nH]cn1)C(=O)N[C@H](C(=O)N[C@@H](Cc1ccc(O)cc1)C(N)=O)[C@@H](C)O)C(C)C)[C@@H](C)O` [Example 95, N-alpha-[(S)-4-Carboxy-4-(19-carboxynonadecanoylamino)butyryl]-[Arg1,Glu14,His17,His35]-pramlintide] ({C20 diacid-γGlu}-RCNTATCATQRLAEFLHHSSNNFGPILPPTNVGSHTY-NH2; disulfide 2-7 (inferred)), for which the solubility at 18 h was greater than 200 µM in series [1] (setting [5]); 16 µM (≈ 72.1 µg/mL) in series [1] (setting [6]); 2 µM (≈ 9.01 µg/mL) in series [1] (setting [7]); 11 µM (≈ 49.6 µg/mL) in series [1] (setting [8]); 51 µM (≈ 230 µg/mL) in series [1] (setting [9]); greater than 200 µM in series [1] (setting [10]). Further, the solubility at 18 h is greater than 200 µM in series [1] (glycylglycine buffer, pH 4, pH 4.0, 18 hours at room temperature, Table 2, read-out: Solubility pH 4.0); greater than 200 µM in series [1] (setting [11]); greater than 200 µM in series [1] (setting [12]). The EC50 in series [2] (Table 7, human calcitonin (CTa) receptor) worked out at 0.175 nM; in series [4] (Table 2, BHK amylin 3(a)-receptor/CRE-luc cells) it was 0.082 nM. The “ThT pH 4.0 lag time” value in series [3] is reported as greater than 45 h. In series [3], the “ThT pH 4.0 lag time (h)” value is listed as greater than 45 h.

Take `CC[C@H](C)[C@H](NC(=O)[C@@H]1CCCN1C(=O)CNC(=O)[C@H](Cc1ccccc1)NC(=O)[C@H](CC(N)=O)NC(=O)[C@H](CC(N)=O)NC(=O)[C@H](CO)NC(=O)[C@H](CO)NC(=O)[C@H](Cc1c[nH]cn1)NC(=O)[C@@H](NC(=O)[C@H](CC(C)C)NC(=O)[C@H](Cc1ccccc1)NC(=O)[C@H](CC(N)=O)NC(=O)[C@H](C)NC(=O)[C@H](CC(C)C)NC(=O)[C@H](CCCNC(=N)N)NC(=O)[C@H](CCC(N)=O)NC(=O)[C@@H](NC(=O)[C@H](C)NC(=O)[C@@H]1CSSC[C@H](NC(=O)[C@H](CCCNC(=N)N)NC(=O)CC[C@H](NC(=O)CCCCCCCCCCCCCCCCCCC(=O)O)C(=O)O)C(=O)N[C@@H](CC(N)=O)C(=O)N[C@@H]([C@@H](C)O)C(=O)N[C@@H](C)C(=O)N[C@@H]([C@@H](C)O)C(=O)N1)[C@@H](C)O)C(C)C)C(=O)N[C@@H](CC(C)C)C(=O)N1CCC[C@H]1C(=O)N1CCC[C@H]1C(=O)N[C@H](C(=O)N[C@@H](CC(N)=O)C(=O)N[C@H](C(=O)NCC(=O)N[C@@H](CO)C(=O)N[C@@H](CC(N)=O)C(=O)N[C@H](C(=O)N1CCC[C@H]1C(N)=O)[C@@H](C)O)C(C)C)[C@@H](C)O` [Example 97] ({C20 diacid-γGlu}-RCNTATCATQRLANFLVHSSNNFGPILPPTNVGSNTP-NH2; disulfide 2-7 (inferred); C-terminus assumed): the solubility at 18 h in series [1] (setting [5]), in series [1] (setting [6]), in series [1] (setting [7]), in series [1] (setting [8]), in series [1] (setting [9]) and in series [1] (setting [10]) was greater than 200 µM in each case. The solubility at 18 h in series [1] (setting [11]) and in series [1] (setting [12]) was greater than 200 µM throughout. Further, the EC50 is 0.0385 nM in series [2] (setting [13]) and 0.034 nM in series [4] (Table 11). Further, the “ThT pH 4.0 lag time (h)” value in series [3] was 1.7 h.

Turning to `CC[C@H](C)[C@H](NC(=O)[C@@H]1CCCN1C(=O)CNC(=O)[C@H](Cc1ccccc1)NC(=O)[C@H](CC(N)=O)NC(=O)[C@H](CC(N)=O)NC(=O)[C@H](CO)NC(=O)[C@H](CO)NC(=O)[C@H](Cc1c[nH]cn1)NC(=O)[C@@H](NC(=O)[C@H](CC(C)C)NC(=O)[C@H](Cc1ccccc1)NC(=O)[C@H](CC(N)=O)NC(=O)[C@H](C)NC(=O)[C@H](CC(C)C)NC(=O)[C@H](CCCNC(=N)N)NC(=O)[C@H](CCC(N)=O)NC(=O)[C@@H](NC(=O)[C@H](C)NC(=O)[C@@H]1CSSC[C@H](NC(=O)[C@H](CCCNC(=N)N)NC(=O)CC[C@H](NC(=O)CCCCCCCCCCCCCCCCCCC(=O)O)C(=O)O)C(=O)N[C@@H](CC(N)=O)C(=O)N[C@@H]([C@@H](C)O)C(=O)N[C@@H](C)C(=O)N[C@@H]([C@@H](C)O)C(=O)N1)[C@@H](C)O)C(C)C)C(=O)N[C@@H](CC(C)C)C(=O)N1CCC[C@H]1C(=O)N1CCC[C@H]1C(=O)N[C@H](C(=O)N[C@@H](CC(N)=O)C(=O)N[C@H](C(=O)NCC(=O)N[C@@H](CO)C(=O)N[C@@H](Cc1c[nH]cn1)C(=O)N[C@H](C(=O)N[C@@H](Cc1ccc(O)cc1)C(N)=O)[C@@H](C)O)C(C)C)[C@@H](C)O` [Example 98] ({C20 diacid-γGlu}-RCNTATCATQRLANFLVHSSNNFGPILPPTNVGSHTY-NH2; disulfide 2-7 (inferred); C-terminus assumed), the solubility at 18 h in series [1] (setting [5]) was 85 µM (≈ 379 µg/mL); in series [1] (setting [6]), 1 µM (≈ 4.45 µg/mL); in series [1] (setting [7]), 1 µM (≈ 4.45 µg/mL); in series [1] (setting [8]), 1 µM (≈ 4.45 µg/mL); in series [1] (setting [10]), greater than 200 µM; in series [1] (setting [11]), greater than 200 µM. The solubility at 18 h is greater than 200 µM in series [1] (setting [12]) and 1 µM (≈ 4.45 µg/mL) in series [1] (setting [14]). For the same compound, the 50% effective concentration (EC50) was 0.193 nM in series [2] (setting [13]) and 0.0745 nM in series [4] (Table 11). Besides, the “ThT pH 4.0 lag time (h)” value in series [3] came out at 2.6 h.

As for `CC[C@H](C)[C@H](NC(=O)[C@@H]1CCCN1C(=O)CNC(=O)[C@H](Cc1ccccc1)NC(=O)[C@H](CC(N)=O)NC(=O)[C@H](CC(N)=O)NC(=O)[C@H](CO)NC(=O)[C@H](CO)NC(=O)[C@H](Cc1c[nH]cn1)NC(=O)[C@@H](NC(=O)[C@H](CC(C)C)NC(=O)[C@H](Cc1ccccc1)NC(=O)[C@H](CC(N)=O)NC(=O)[C@H](C)NC(=O)[C@H](CC(C)C)NC(=O)[C@H](CCCNC(=N)N)NC(=O)[C@H](CCC(N)=O)NC(=O)[C@@H](NC(=O)[C@H](C)NC(=O)[C@@H]1CSSC[C@H](NC(=O)[C@H](CCCNC(=N)N)NC(=O)CNC(=O)CC[C@H](NC(=O)CCCCCCCCCCCCCCCCCCC(=O)O)C(=O)O)C(=O)N[C@@H](CC(N)=O)C(=O)N[C@@H]([C@@H](C)O)C(=O)N[C@@H](C)C(=O)N[C@@H]([C@@H](C)O)C(=O)N1)[C@@H](C)O)C(C)C)C(=O)N[C@@H](CC(C)C)C(=O)N1CCC[C@H]1C(=O)N1CCC[C@H]1C(=O)N[C@H](C(=O)N[C@@H](CC(N)=O)C(=O)N[C@H](C(=O)NCC(=O)N[C@@H](CO)C(=O)N[C@@H](Cc1c[nH]cn1)C(=O)N[C@H](C(=O)N[C@@H](Cc1ccc(O)cc1)C(N)=O)[C@@H](C)O)C(C)C)[C@@H](C)O` [Example 99, N-alpha-[(S)-4-Carboxy-4-(19-carboxynonadecanoylamino)butyryl]-Gly-[Arg1,His35]-pramlintide] ({C20 diacid-γGlu}-GRCNTATCATQRLANFLVHSSNNFGPILPPTNVGSHTY-NH2; disulfide 3-8 (inferred); C-terminus assumed), the solubility at 18 h is 2 µM (≈ 9.02 µg/mL) in series [1] (setting [5]); 1 µM (≈ 4.51 µg/mL) in series [1] (setting [6]); 1 µM (≈ 4.51 µg/mL) in series [1] (setting [7]); 1 µM (≈ 4.51 µg/mL) in series [1] (setting [8]); greater than 200 µM in series [1] (setting [10]); greater than 200 µM in series [1] (setting [11]). Also, the figures for the solubility at 18 h in series [1] (setting [12]) and in series [1] (setting [14]) were greater than 200 µM and 1 µM (≈ 4.51 µg/mL), respectively. In addition, the half-maximal effective concentration (EC50) in series [2] (setting [13]) amounted to 0.0875 nM; in series [4] (Table 11), 0.045 nM. Also, in series [3], the “ThT pH 4.0 lag time (h)” value was determined as 1.7 h.
